Assay results reported in patent US20070172957A1, “Methods of identifying anti-inflammatory macrolides” (TAISHO PHARMACEUTICAL CO., LTD., priority 2004, published 2007).

Tested on: genes predictive for the anti-inflammatory macrolide effect
Test: Genes statistically predictive of Clari response: differentially expressed with Clari but not the inactive macrolides MAA or Josa (Appendix E)
Format: cell-based
From the text: In the case of the above-mentioned (i) related to arachidonic acid biosynthesis, specifically, methods of the embodiment involve assaying whether a test macrolide alters biosynthesis of arachidonic acid, alters the expression or activities of enzymes involved in the biosynthesis or activation of arachidonic acid (e.g., arachidonic acid CoA synthetase, delta-6 desaturase, fatty acid elongase, and delta-5 desaturase, AA-related genes in Tables 2 and 3), or alters the expression of genes identified as predictive for the anti-inflammatory macrolide effect (Appendix E). Assays in which arachidonic acid or gene expression or enzymatic activity is detected can be carried out after contacting a cell with a test macrolide. Any cell line that secretes prostaglandin or produces arachidonic acid can be used. Epithelial and macrophages lines (e.g., A549 or THP-1) are suitable for this purpose; other cell lines can be identified by carrying out assays such as those described in the specific Examples, below. Alternatively, screening assays can be carried out after adding a test macrolide to an in vitro cell system (e.g., a cellular extract or liver microsome preparation) or an in vitro enzyme assay system.

## CC[C@H]1OC(=O)[C@H](C)[C@@H](O[C@H]2C[C@@](C)(OC)[C@@H](O)[C@H](C)O2)[C@H](C)[C@@H](O[C@@H]2O[C@H](C)C[C@H](N(C)C)[C@H]2O)[C@](C)(OC)C[C@@H](C)C(=O)[C@H](C)[C@@H](O)[C@]1(C)O [clarithromycin]
SpotID 46579, MAA and Josa vs. Clari
  group mean, gene SERPING1: 0.86
SpotID 46586, MAA and Josa vs. Clari
  group mean, gene C12orf8: 1.22
SpotID 46633, pooled group mean
  mean group, FLJ20699: 0.81
SpotID 46648, pooled group mean
  mean group, ARHGAP1: 0.96
SpotID 46679, MAA and Josa vs. Clari
  group mean, gene KIAA1172: 0.91
SpotID 46679, pooled group mean
  mean group, KIAA1172: 0.92
SpotID 46825, MAA and Josa vs. Clari
  group mean, gene MKNK2: 1.15
SpotID 46825, pooled group mean
  mean group, MKNK2: 1.12
SpotID 46838, MAA and Josa vs. Clari
  group mean, gene PRKAR1A: 0.92
SpotID 46843, MAA and Josa vs. Clari
  group mean, gene ARHGDIA: 0.91
SpotID 46843, pooled group mean
  mean group, ARHGDIA: 0.93
SpotID 46882, MAA and Josa vs. Clari
  group mean, gene HEXA: 1.14
SpotID 46896, MAA and Josa vs. Clari
  group mean, gene CDIPT: 1.04
SpotID 46896, pooled group mean
  mean group, CDIPT: 1.01
SpotID 46923, pooled group mean
  mean group, PACE: 1.09
SpotID 46935, MAA and Josa vs. Clari
  group mean, gene METAP2: 0.88
SpotID 46935, pooled group mean
  mean group, METAP2: 0.89
SpotID 46979, MAA and Josa vs. Clari
  group mean, gene HSPBP1: 0.87
SpotID 46988, pooled group mean
  mean group, EREG: 0.85
SpotID 46991, MAA and Josa vs. Clari
  group mean, gene TFPI2: 0.57
SpotID 47034, MAA and Josa vs. Clari
  group mean, gene C2orf3: 0.87
SpotID 47034, pooled group mean
  mean group, C2orf3: 0.90
SpotID 47056, MAA and Josa vs. Clari
  group mean, gene NFRKB: 0.82
SpotID 47111, MAA and Josa vs. Clari
  group mean, gene GOLGB1: 1.17
SpotID 47123, MAA and Josa vs. Clari
  group mean, gene MCM2: 0.78
SpotID 47131, MAA and Josa vs. Clari
  group mean, gene KIAA0251: 1.07
SpotID 47192, MAA and Josa vs. Clari
  group mean, gene ARHGAP1: 0.94
SpotID 47212, MAA and Josa vs. Clari
  group mean, gene ITGB5: 1.12
SpotID 47241, pooled group mean
  mean group, NUBP1: 0.95
SpotID 47249, MAA and Josa vs. Clari
  group mean, gene AKR1A1: 1.08
SpotID 47251, MAA and Josa vs. Clari
  group mean, gene HKE4: 1.13
SpotID 47314, pooled group mean
  mean group, EPOR: 1.14
SpotID 47352, MAA and Josa vs. Clari
  group mean, gene ADAM11: 1.18
SpotID 47352, pooled group mean
  mean group, ADAM11: 1.10
SpotID 47354, MAA and Josa vs. Clari
  group mean, gene ERF: 1.00
SpotID 47366, pooled group mean
  mean group, P4HB: 1.18
SpotID 47406, MAA and Josa vs. Clari
  group mean, gene MTHFD1: 0.93
SpotID 47415, pooled group mean
  mean group, CETN2: 1.18
SpotID 47418, MAA and Josa vs. Clari
  group mean, gene SNK: 0.77
SpotID 47418, pooled group mean
  mean group, SNK: 0.82
SpotID 47432, pooled group mean
  mean group, GCS1: 1.02
SpotID 47439, MAA and Josa vs. Clari
  group mean, gene DCTN1: 0.93
SpotID 47439, pooled group mean
  mean group, DCTN1: 0.95
SpotID 47446, MAA and Josa vs. Clari
  group mean, gene RANBP1: 0.83
SpotID 47446, pooled group mean
  mean group, RANBP1: 0.89
SpotID 47504, pooled group mean
  mean group, MSH3: 0.99
SpotID 47522, pooled group mean
  mean group, SERPINA1: 0.95
SpotID 47524, MAA and Josa vs. Clari
  group mean, gene PTK2B: 1.08
SpotID 47535, MAA and Josa vs. Clari
  group mean, gene ARHGDIA: 0.91
SpotID 47622, MAA and Josa vs. Clari
  group mean, gene TRAP1: 0.89
SpotID 47622, pooled group mean
  mean group, TRAP1: 0.94
SpotID 47661, MAA and Josa vs. Clari
  group mean, gene HSPA9B: 0.90
SpotID 47679, pooled group mean
  mean group, NR4A2: 1.14
SpotID 47694, MAA and Josa vs. Clari
  group mean, gene HSPA9B: 0.90
SpotID 47694, pooled group mean
  mean group, HSPA9B: 0.95
SpotID 47705, MAA and Josa vs. Clari
  group mean, gene MAD4: 1.42
SpotID 47754, MAA and Josa vs. Clari
  group mean, gene NBS1: 0.89
SpotID 47754, pooled group mean
  mean group, NBS1: 0.97
SpotID 47755, MAA and Josa vs. Clari
  group mean, gene KIAA1922: 0.79
SpotID 47776, MAA and Josa vs. Clari
  group mean, gene POLA: 0.86
SpotID 47776, pooled group mean
  mean group, POLA: 0.89
SpotID 47793, MAA and Josa vs. Clari
  group mean, gene BET3: 1.08
SpotID 47802, MAA and Josa vs. Clari
  group mean, gene GOT1: 0.93
SpotID 47802, pooled group mean
  mean group, GOT1: 0.94
SpotID 47811, MAA and Josa vs. Clari
  group mean, gene ENTPD6: 1.11
SpotID 47811, pooled group mean
  mean group, ENTPD6: 1.06
SpotID 47846, pooled group mean
  mean group, SSI-1: 0.93
SpotID 47850, MAA and Josa vs. Clari
  group mean, gene PRLR: 0.99
SpotID 47850, pooled group mean
  mean group, PRLR: 0.99
SpotID 47898, MAA and Josa vs. Clari
  group mean, gene ERF: 1.01
SpotID 47911, MAA and Josa vs. Clari
  group mean, gene YWHAE: 0.95
SpotID 47926, MAA and Josa vs. Clari
  group mean, gene CCNE2: 0.73
SpotID 47935, MAA and Josa vs. Clari
  group mean, gene P4HA1: 1.27
SpotID 47935, pooled group mean
  mean group, P4HA1: 1.18
SpotID 47937, MAA and Josa vs. Clari
  group mean, gene CTSB: 1.15
SpotID 47939, MAA and Josa vs. Clari
  group mean, gene INPP5E: 0.89
SpotID 47947, MAA and Josa vs. Clari
  group mean, gene SF3B3: 0.93
SpotID 47949, MAA and Josa vs. Clari
  group mean, gene BCKDK: 0.94
SpotID 47950, MAA and Josa vs. Clari
  group mean, gene DNASE1L1: 1.06
SpotID 47950, pooled group mean
  mean group, DNASE1L1: 1.03
SpotID 47951, MAA and Josa vs. Clari
  group mean, gene COX15: 0.94
SpotID 47973, pooled group mean
  mean group, USF2: 1.05
SpotID 47987, MAA and Josa vs. Clari
  group mean, gene THBS1: 0.60
SpotID 47987, pooled group mean
  mean group, THBS1: 0.71
SpotID 47988, pooled group mean
  mean group, RPN2: 1.02
SpotID 47995, MAA and Josa vs. Clari
  group mean, gene PTGER1: 0.73
SpotID 48000, MAA and Josa vs. Clari
  group mean, gene CTSH: 1.22
SpotID 48004, pooled group mean
  mean group, CUTL1: 1.02
SpotID 48006, MAA and Josa vs. Clari
  group mean, gene BCL2L2: 1.02
SpotID 48026, pooled group mean
  mean group, SRF: 1.03
SpotID 48121, MAA and Josa vs. Clari
  group mean, gene SCN1B: 1.07
SpotID 48137, pooled group mean
  mean group, FRDA: 0.90
SpotID 48149, MAA and Josa vs. Clari
  group mean, gene SFRS7: 0.85
SpotID 48149, pooled group mean
  mean group, SFRS7: 0.88
SpotID 48160, MAA and Josa vs. Clari
  group mean, gene ZAP3: 0.92
SpotID 48160, pooled group mean
  mean group, ZAP3: 0.95
SpotID 48182, MAA and Josa vs. Clari
  group mean, gene SNAPC1: 0.87
SpotID 48192, MAA and Josa vs. Clari
  group mean, gene OPA1: 0.90
SpotID 48214, MAA and Josa vs. Clari
  group mean, gene BAT8: 1.11
SpotID 48233, MAA and Josa vs. Clari
  group mean, gene MAPK12: 1.05
SpotID 48233, pooled group mean
  mean group, MAPK12: 1.03
SpotID 48235, MAA and Josa vs. Clari
  group mean, gene DAXX: 0.93
SpotID 48266, MAA and Josa vs. Clari
  group mean, gene GRB2: 1.06
SpotID 48266, pooled group mean
  mean group, GRB2: 1.04
SpotID 48280, MAA and Josa vs. Clari
  group mean, gene ARHC: 1.01
SpotID 48301, MAA and Josa vs. Clari
  group mean, gene GCN5L1: 1.02
SpotID 48301, pooled group mean
  mean group, GCN5L1: 1.01
SpotID 48328, MAA and Josa vs. Clari
  group mean, gene FN1: 0.53
SpotID 48333, MAA and Josa vs. Clari
  group mean, gene DNMT1: 0.79
SpotID 48345, pooled group mean
  mean group, CCT3: 1.03
SpotID 48348, MAA and Josa vs. Clari
  group mean, gene FN1: 0.53
SpotID 48363, MAA and Josa vs. Clari
  group mean, gene CNOT2: 0.92
SpotID 48365, MAA and Josa vs. Clari
  group mean, gene MAPK9: 0.92
SpotID 48365, pooled group mean
  mean group, MAPK9: 0.94
SpotID 48396, MAA and Josa vs. Clari
  group mean, gene CNOT2: 0.91
SpotID 48397, MAA and Josa vs. Clari
  group mean, gene HIF1A: 0.89
SpotID 48411, MAA and Josa vs. Clari
  group mean, gene MGEA5: 1.19
SpotID 48411, pooled group mean
  mean group, MGEA5: 1.13
SpotID 48415, MAA and Josa vs. Clari
  group mean, gene SERPINB1: 1.32
SpotID 48415, pooled group mean
  mean group, SERPINB1: 1.28
SpotID 48451, MAA and Josa vs. Clari
  group mean, gene M6PR: 1.12
SpotID 48456, MAA and Josa vs. Clari
  group mean, gene DDC: 0.94
SpotID 48456, pooled group mean
  mean group, DDC: 0.97
SpotID 48461, pooled group mean
  mean group, BARD1: 0.86
SpotID 48470, MAA and Josa vs. Clari
  group mean, gene MCM5: 0.68
SpotID 48471, MAA and Josa vs. Clari
  group mean, gene RBM3: 0.87
SpotID 48486 (gene symbol not given), pooled group mean
  mean group, SpotID 48486: 0.94
SpotID 48500, MAA and Josa vs. Clari
  group mean, gene RPL13A: 0.90
SpotID 48500, pooled group mean
  mean group, RPL13A: 0.92
SpotID 48508, MAA and Josa vs. Clari
  group mean, gene USP24: 0.87
SpotID 48521, MAA and Josa vs. Clari
  group mean, gene ARAF1: 0.95
SpotID 48521, pooled group mean
  mean group, ARAF1: 0.98
SpotID 48530, MAA and Josa vs. Clari
  group mean, gene APLP2: 1.15
SpotID 48530, pooled group mean
  mean group, APLP2: 1.10
SpotID 48557, pooled group mean
  mean group, NFE2L1: 1.06
SpotID 48620, pooled group mean
  mean group, XBP1: 1.10
SpotID 48643, MAA and Josa vs. Clari
  group mean, gene DIP2: 0.87
SpotID 48644, MAA and Josa vs. Clari
  group mean, gene KIAA0323: 1.14
SpotID 48646, MAA and Josa vs. Clari
  group mean, gene SDCBP: 1.11
SpotID 48646, pooled group mean
  mean group, SDCBP: 1.08
SpotID 48654, pooled group mean
  mean group, FECH: 0.98
SpotID 48672, MAA and Josa vs. Clari
  group mean, gene CHK: 1.01
SpotID 48693, MAA and Josa vs. Clari
  group mean, gene HSPBP1: 0.87
SpotID 48693, pooled group mean
  mean group, HSPBP1: 0.91
SpotID 48705, MAA and Josa vs. Clari
  group mean, gene SIGIRR: 1.12
SpotID 48707, MAA and Josa vs. Clari
  group mean, gene P4HA1: 1.25
SpotID 48707, pooled group mean
  mean group, P4HA1: 1.18
SpotID 48713, MAA and Josa vs. Clari
  group mean, gene MKNK2: 1.22
SpotID 48717, pooled group mean
  mean group, PPP3CB: 0.95
SpotID 48725, MAA and Josa vs. Clari
  group mean, gene IKKE: 0.97
SpotID 48725, pooled group mean
  mean group, IKKE: 0.94
SpotID 48732, pooled group mean
  mean group, RALA: 1.06
SpotID 48747, pooled group mean
  mean group, MAFB: 0.93
SpotID 48804, MAA and Josa vs. Clari
  group mean, gene KIAA0217: 0.85
SpotID 48804, pooled group mean
  mean group, KIAA0217: 0.88
